Data from patent publication US11242351B2, “Tricyclic inhibitors of the BCL6 BTB domain protein-protein interaction and uses thereof” (priority 2017, dated 2022).
Like-named read-outs stand apart in the source and are kept apart here.

Tests used:
[1] = tested on: BCL6 reporter construct in SuDHL4-3×BCL6-TK-Luc cells; assay: Cell-based luciferase assay (BCL6 reporter); conditions: 48 h, read-out: Luc IC50
Protocol: Cell-Based Luciferase Assay:
A BCL6 reporter construct containing three copies of the consensus BCL6 binding site, the TK promoter, and the firefly luciferase gene was stably expressed in SuDHL4 cells after lentivirus infection and selection with Blasticidin. SuDHL4-3×BCL6-TK-Luc cells were seeded into a Viewplate 384-well assay dish at 15,000 cells/well in […] (Alpha-MEM high glucose containing 10% FBS, 25 mM HEPES, […] GlutaMAX, 100 µg/mL Normocin, and […] Gentamycin, Invitrogen). A HP D300 digital dispenser was used to dose cells with DMSO or test compounds across a 10-point range of concentrations (high dose of 10 μM), and cultures were grown in a humidified 5% CO2 incubator at 37° C. After two days, plates were removed from the incubator and equilibrated to room temperature. An equal volume of neolite reporter gene assay reagent was added to each well, and samples were processed according to the manufacturer's instructions (Perkin Elmer). The luminescent signal was measured using an Envision plate reader equipped with a US-Luminescence detector.

Karpas422 cells = assay: Tumor cell growth inhibition assay; type: cell-based; conditions: Homo sapiens, KARPAS-422, 144 h, read-out: GI Karpas EC50
Protocol: Tumor Cell Growth Inhibition Assay:
Karpas422 cells were seeded into a 96-well plate at 2,000 cells/well in 150 μl medium (Alpha-MEM containing 10% FBS, […] Normocin, and […] Gentamycin, Invitrogen). A HP D300 digital dispenser was used to dose cells with DMSO or test compounds across a 10-point range of concentrations (high dose of 5 μM), and cultures were grown in a humidified 5% CO2 incubator at 37° C. After six days, plates were removed from incubator and equilibrated to room temperature. An equal volume of ATPlite assay reagent was added to each well, and samples were processed according to the manufacturer's instructions (Perkin Elmer). The luminescent signal was measured using an Envision plate reader equipped with a US-Luminescence detector.

[2] = target: BCL6 BTB domain (biotin-thrombin-BCL6 amino acids 1-129) (Homo sapiens (Human), UniProt P41182); assay: Surface Plasmon Resonance (SPR) assay; type: binding; conditions: Biacore T200, single cycle kinetic analysis
Protocol: Surface Plasmon Resonance (SPR) Assay
SPR studies were performed using a Biacore™ T200 instrument (GE Health Sciences Inc.). […] The Biacore flow rate was set at 100 μl/min. […] Curve fitting and KD calculations were performed with the Biacore T200 Evaluation software (GE Health Sciences Inc).

[3] = SuDHL4-3×BCL6-TK-Luc cells, two days
[4] = Karpas422 cells, six days, ATPlite

Compound	IC50 [1] [µM]	EC50 (Karpas422 cells) [µM]	Kd [2] [µM]	IC50 [1, 3] [µM]	EC50 (Karpas422 cells; [4]) [µM]
CN(C)c1cc(NC(=O)Cn2cc(-c3cc(C(N)=O)c(O)c(Cl)c3F)c3c(=O)n4c(nc32)CCC4)c(Cl)c(F)n1 [I-27, 3-chloro-5-(1-(2-((3-chloro-6-(dimethyl-amino)-2-fluoro-pyridin-4-yl)amino)-2-oxoethyl)-4-oxo-4,6,7,8-tetrahydro-1H-dipyrrolo[1,2-a:2′,3′-d]pyrimidin-3-yl)-4-fluoro-2-hydroxy-benzamide]	1.14	1.63	0.19	–	–
CCN1CCN(c2cc(NC(=O)Cn3cc(-c4cc(C(N)=O)c(O)c(Cl)c4F)c4c(=O)n5c(nc43)CCC5)c(Cl)c(F)n2)[C@@H](C)C1 [I-28, (S)-3-chloro-5-(1-(2-((3-chloro-6-(4-ethyl-2-methylpiperazin-1-yl)-2-fluoropyridin-4-yl)amino)-2-oxoethyl)-4-oxo-4,6,7,8-tetra-hydro-1H-dipyrrolo [1,2-a:2′,3′-d]pyri-midin-3-yl)-4-fluoro-2-hydroxybenzamide]	–	–	0.135	1.34	0.779
C[C@H]1CN(CC2CC2)CCN1c1cc(NC(=O)Cn2cc(-c3cc(C(N)=O)c(O)c(Cl)c3F)c3c(=O)n4c(nc32)CCC4)c(Cl)c(F)n1 [I-29, (S)-3-chloro-5-(1-(2-((3-chloro-6-(4-(cyclopropylmethyl)-2-methylpiperazin-1-yl)-2-fluoropyridin-4-yl)amino)-2-oxoethyl)-4-oxo-4,6,7,8-tetra-hydro-1H-dipyrrolo [1,2-a:2′,3′-d]pyrimi-din-3-yl)-4-fluoro-2-hydroxybenzamide]	2.15	2.59	0.24	–	–
NC(=O)c1cc(-c2cn(CC(=O)Nc3cc(N4CCOCC4)c(F)cc3Cl)c3nc4n(c(=O)c23)CCC4)c(F)c(F)c1O [I-30, 5-(1-(2-((2-chloro-4-fluoro-5-morpholino-phenyl)amino)-2-oxo-ethyl)-4-oxo-4,6,7,8-tetrahydro-1H-dipyrrolo [1,2-a:2′,3′-d]pyrimidin-3-yl)-3,4-difluoro-2-hydroxybenzamide]	1.11	0.98	0.106	–	–
NC(=O)c1cc(-c2cn(CC(=O)Nc3cc(N4CCOCC4)ccc3Cl)c3nc4n(c(=O)c23)CCC4)c(F)c(F)c1O [I-31, 5-(1-(2-((2-chloro-5-morpholinophenyl)amino)-2-oxoethyl)-4-oxo-4,6,7,8-tetrahydro-1H-dipyrrolo[1,2-a:2′,3′-d]pyrimidin-3-yl)-3,4-difluoro-2-hydroxy-benzamide]	6.3	2.69	0.141	–	–
CN1CCN(c2ccc(Cl)c(NC(=O)Cn3cc(-c4cc(C(N)=O)c(O)c(F)c4F)c4c(=O)n5c(nc43)CCC5)c2)CC1 [I-32, 5-(1-(2-((2-chloro-5-(4-methylpiperazin-1-yl)phenyl)amino)-2-oxo-ethyl)-4-oxo-4,6,7,8-tetrahydro-1H-dipyrrolo [1,2-a:2′,3′-d]pyrimidin-3-yl)-3,4-difluoro-2-hydroxybenzamide]	–	–	0.261	3.58	1.34
C[C@H]1CN(C)CCN1c1cc(NC(=O)Cn2cc(-c3cc(C(N)=O)c(O)c(F)c3F)c3c(=O)n4c(nc32)COCC4)c(Cl)c(F)n1 [I-33, (S)-5-(1-(2-((3-chloro-6-(2,4-dimethylpiperazin-1-yl)-2-fluoropyridin-4-yl)amino)-2-oxoethyl)-4-oxo-4,6,7,9-tetrahydro-1H-pyrrolo[2′,3′:4,5]pyrimido[2,1-c][1,4]oxazin-3-yl)-3,4-difluoro-2-hydroxybenzamide]	0.149	0.214	0.011	–	–
C[C@H]1CN(C2COC2)CCN1c1cc(NC(=O)Cn2cc(-c3cc(C(N)=O)c(O)c(F)c3F)c3c(=O)n4c(nc32)COCC4)c(Cl)c(F)n1 [I-34, (S)-5-(1-(2-((3-chloro-2-fluoro-6-(2-methyl-4-(oxetan-3-yl)piperazin-1-yl)pyridin-4-yl)amino)-2-oxoethyl)-4-oxo-4,6,7,9-tetrahydro-1H-pyrrolo[2′,3′:4,5]pyrimido [2,1-c][1,4]oxazin-3-yl)-3,4-difluoro-2-hydroxy-benzamide]	0.155	0.177	0.00724	–	–
C[C@H]1CN(CCC(F)(F)F)CCN1c1cc(NC(=O)Cn2cc(-c3cc(C(N)=O)c(O)c(F)c3F)c3c(=O)n4c(nc32)CCC4)c(Cl)cn1 [I-35, (S)-5-(1-(2-((5-chloro-2-(2-methyl-4-(3,3,3-trifluoropropyl)piperazin-1-yl)pyridin-4-yl)amino)-2-oxoethyl)-4-oxo-4,6,7,8-tetrahydro-1H-dipyrrolo[1,2-a:2′,3′-d]pyrimidin-3-yl)-3,4-difluoro-2-hydroxy-benzamide]	–	–	0.0243	0.237	0.194
CN1CCN(c2cc(NC(=O)Cn3cc(-c4cc(C(N)=O)c(O)c(F)c4F)c4c(=O)n5c(nc43)CCC5)c(Cl)cn2)CC1 [I-36, 5-(1-(2-((5-chloro-2-(4-methylpiperazin-1-yl)pyridin-4-yl)amino)-2-oxoethyl)-4-oxo-4,6,7,8-tetrahydro-1H-dipyrrolo[1,2-a:2′,3′-d]pyrimidin-3-yl)-3,4-difluoro-2-hydroxy-benzamide]	0.701	0.48	0.0232	–	–
CO[C@@H](C)CN1CCN(c2cc(NC(=O)Cn3cc(-c4cc(C(N)=O)c(O)c(F)c4F)c4c(=O)n5c(nc43)CCC5)c(Cl)c(F)n2)[C@@H](C)C1 [I-37, 5-(1-(2-((3-chloro-2-fluoro-6-((S)-4-((S)-2-methoxypropyl)-2-methylpiperazin-1-yl)pyridin-4-yl)amino)-2-oxoethyl)-4-oxo-4,6,7,8-tetrahydro-1H-dipyrrolo[1,2-a:2′,3′-d]pyrimidin-3-yl)-3,4-difluoro-2-hydroxy-benzamide]	–	–	0.0144	0.109	0.113
C[C@@H](C1CC1)N1CCN(c2cc(NC(=O)Cn3cc(-c4cc(C(N)=O)c(O)c(F)c4F)c4c(=O)n5c(nc43)CCC5)c(Cl)c(F)n2)[C@@H](C)C1 [I-38, 5-(1-(2-((3-chloro-6-((S)-4-((S)-1-cyclo-propylethyl)-2-methyl-piperazin-1-yl)-2-fluoropyridin-4-yl)amino)-2-oxoethyl)-4-oxo-4,6,7,8-tetrahydro-1H-dipyrrolo [1,2-a:2′,3′-d]pyrimidin-3-yl)-3,4-difluoro-2-hydroxybenzamide]	–	–	0.0325	0.193	0.444
C[C@H](C1CC1)N1CCN(c2cc(NC(=O)Cn3cc(-c4cc(C(N)=O)c(O)c(F)c4F)c4c(=O)n5c(nc43)CCC5)c(Cl)c(F)n2)[C@@H](C)C1 [I-39, 5-(1-(2-((3-chloro-6-((S)-4-((R)-1-cyclo-propylethyl)-2-methyl-piperazin-1-yl)-2-fluoropyridin-4-yl)amino)-2-oxoethyl)-4-oxo-4,6,7,8-tetrahydro-1H-dipyrrolo[1,2-a:2′,3′-d]pyrimidin-3-yl)-3,4-difluoro-2-hydroxy-benzamide]	–	–	0.0349	0.21	0.384
C[C@H]1CN(CCC(F)(F)F)CCN1c1cc(NC(=O)Cn2cc(-c3cc(C(N)=O)c(O)c(F)c3F)c3c(=O)n4c(nc32)CCC4)c(Cl)c(F)n1 [I-40, (S)-5-(1-(2-((3-chloro-2-fluoro-6-(2-methyl-4-(3,3,3-trifluoropropyl)piperazin-1-yl)pyridin-4-yl)amino)-2-oxoethyl)-4-oxo-4,6,7,8-tetrahydro-1H-dipyrrolo[1,2-a:2′,3′-d]pyrimidin-3-yl)-3,4-difluoro-2-hydroxy-benzamide]	–	–	0.134	0.187	0.273
C[C@H]1COCCN1c1cc(NC(=O)Cn2cc(-c3cc(C(N)=O)c(O)c(F)c3F)c3c(=O)n4c(nc32)CCCC4)c(Cl)c(F)n1 [I-42, (S)-5-(1-(2-((3-chloro-2-fluoro-6-(3-methyl-morpholino)pyridin-4-yl)amino)-2-oxoethyl)-4-oxo-1,4,6,7,8,9-hexahydropyrido [1,2-a]pyrrolo[2,3-d]pyrimidin-3-yl)-3,4-difluoro-2-hydroxy-benzamide]	–	–	0.029	0.407	0.331
CCN1CCN(c2cc(NC(=O)Cn3cc(-c4cc(C(N)=O)c(O)c(F)c4F)c4c(=O)n5c(nc43)CCCC5)c(Cl)c(F)n2)[C@@H](C)C1 [I-43, (S)-5-(1-(2-((3-chloro-6-(4-ethyl-2-methyl-piperazin-1-yl)-2-fluoropyridin-4-yl)amino)-2-oxoethyl)-4-oxo-1,4,6,7,8,9-hexahydropyrido [1,2-a]pyrrolo[2,3-d]pyrimidin-3-yl)-3,4-difluoro-2-hydroxy-benzamide]	–	–	0.0428	0.232	0.24
